Laboratory results reported in EP0159194B1, “Iron 3-hydroxypyrone or 3-hydroxypyridone complexes and pharmaceutical compositions containing them” (priority 1984, dated 1985).

Molecular target: apotransferrin (Homo sapiens, UniProt P02787)
Assay: Donation of iron to apotransferrin (59Fe, Sephadex G10 separation)
Assay type: biochemical
Details: 5 x 10^-5M apotransferrin, 1 x 10^-4M iron, pH 7.4
Protocol: (Maltol)2 (ascorbic acid) iron(III) was prepared in situ by dissolving maltol and ascorbic acid in a 2:1 molar ratio in an aqueous medium containing morpholine propane sulphonate (MOPS, 25 mM) and sodium hydrogen carbonate (30 mM), the pH being adjusted to 7.4 with hydrochloric acid (50% v/v). To the medium was added a solution of ^59Fe enriched ferric chloride in 0.1 M aqueous hydrochloric acid containing a molar amount of iron equivalent to that of the ascorbic acid. Equal volumes of the solution of the iron complex and of apotransferrin in the same aqueous medium were mixed to provide concentrations in the mixture of 5 x 10-^5M of apotransferrin and 1 x 10-^4M of iron.
The mixture was incubated at room temperature in separate experiments for 10 and 60 minutes and an aliquot was then added to a Sephadex G10 column equilibrated with the same aqueous medium described above and the column eluted with that medium, fractions being collected and counted. The percentages of ^59Fe associated with apotransferrin and with ligands are calculated as cpm iron-apotransferrin/total cpm and cpm iron-(maltol)2 (ascorbic acid)/total cpm.

[1] = after 10 minutes at room temperature
[2] = after 60 minutes at room temperature

apotransferrin, sequence (P02787 20-698): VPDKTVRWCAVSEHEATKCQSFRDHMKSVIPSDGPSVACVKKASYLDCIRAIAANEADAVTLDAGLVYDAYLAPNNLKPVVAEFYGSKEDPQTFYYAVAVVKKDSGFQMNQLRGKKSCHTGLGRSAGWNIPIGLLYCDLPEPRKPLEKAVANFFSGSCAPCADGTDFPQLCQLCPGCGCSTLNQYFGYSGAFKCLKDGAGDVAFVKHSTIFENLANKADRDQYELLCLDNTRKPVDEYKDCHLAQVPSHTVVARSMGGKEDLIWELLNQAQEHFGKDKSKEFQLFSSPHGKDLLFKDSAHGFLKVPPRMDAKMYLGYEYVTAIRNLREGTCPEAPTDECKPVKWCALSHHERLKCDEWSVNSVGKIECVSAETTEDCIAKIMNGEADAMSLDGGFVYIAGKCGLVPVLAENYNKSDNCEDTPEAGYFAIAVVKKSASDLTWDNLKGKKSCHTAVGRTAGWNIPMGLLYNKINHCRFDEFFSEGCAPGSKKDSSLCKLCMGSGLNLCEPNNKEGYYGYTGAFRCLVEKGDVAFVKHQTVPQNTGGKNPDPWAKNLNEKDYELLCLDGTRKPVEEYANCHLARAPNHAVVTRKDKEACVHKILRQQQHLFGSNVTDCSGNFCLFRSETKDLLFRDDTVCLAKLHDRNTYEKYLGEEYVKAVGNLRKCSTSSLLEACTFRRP

Substance: (maltol)2 (ascorbic acid) iron(III) complex
- 59Fe associated with apotransferrin [1]: 43%
- 59Fe associated with the ligands [1]: 57%
- 59Fe donated to the apotransferrin [2]: 75%
- 59Fe remaining associated with the ligands [2]: 25%
